How the values were obtained:
platelet aggregation = system: platelet aggregation; set-up: method as in PMID 20139357; details: cited from earlier work
thrombin = thrombin (Homo sapiens, UniProt P00734); set-up: method as in PMID 20139357; details: cited from earlier work
bleeding time models = system: bleeding time models; set-up: method as in PMID 20139357, PMID 15748242; details: antithrombotic doses below the ED50 required for antithrombotic efficacy; cited from earlier work
rat = system: rat; set-up: method as in PMID 20139357, PMID 15748242; details: higher doses, rat tail-bleeding time model; cited from earlier work
FXa = biological target: T1, FXa (Homo sapiens, UniProt P00742); assay: Chromogenic substrate assay, Ki determination, Factor Xa; assay type: biochemical; details: substrate S-2765 (Table 3); mean ± SD (n = 5)
T1 construct: purchased Haematologic Technologies (Essex Junction, VT, USA)
T1 sequence (P00742 235-488 limits assumed): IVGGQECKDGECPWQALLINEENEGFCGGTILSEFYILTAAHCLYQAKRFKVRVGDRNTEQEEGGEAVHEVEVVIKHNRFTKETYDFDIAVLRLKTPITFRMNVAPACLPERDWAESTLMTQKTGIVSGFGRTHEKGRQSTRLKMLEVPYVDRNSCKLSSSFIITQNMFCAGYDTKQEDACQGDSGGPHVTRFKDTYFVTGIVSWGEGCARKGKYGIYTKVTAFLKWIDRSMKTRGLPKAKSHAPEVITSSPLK
T1 sequence (P00742 41-179 limits assumed): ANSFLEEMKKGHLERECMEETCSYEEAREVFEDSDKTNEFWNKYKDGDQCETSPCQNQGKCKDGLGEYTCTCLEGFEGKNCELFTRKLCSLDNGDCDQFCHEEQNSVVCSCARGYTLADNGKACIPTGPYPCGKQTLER
Procedure: (§1) The inhibitor (I) constants (Ki) were determined for the inhibition of a series of human enzymes (FXa, thrombin, trypsin, plasmin, protein Ca, streptokinase, tPA, and urokinase) by each compound. Chromogenic substrate assays were performed using a Labsystems IEMS (Cergy Pontoise, France) microtiter plate reader. In each assay, the compound was tested at a minimum of seven concentrations in duplicate to obtain an inhibition curve. Assays were performed according to the following general procedure. In a 96-well microtiter plate, 25 μL of compound, inhibitor solution or buffer was added to 50 μL of substrate. A volume of 25 μL of enzyme solution was added just before the plate was placed in the microtiter plate reader for 1 h at 37 °C. The hydrolysis of the substrate yields p-nitroaniline, which was continuously monitored spectrophotometrically at 405 nm. Data were collected and the initial rate of substrate hydrolysis [Vo (mOD/minute)] was calculated. Following Michaelis-Menten kinetics, the affinity of the enzyme for the substrate, in the absence of the inhibitor (Km) and in the presence of an inhibitor (Kp), was determined to be the negative inverse x-intercept of Lineweaver–Burk plots. The dissociation constant for inhibition (Ki) was calculated using the following equation: Ki = (Km·[I])/(Kp − Km) as described by Williams and Morrison[40].

α-Thrombin = biological target: T2, α-Thrombin (Homo sapiens, UniProt P00734); assay: Chromogenic substrate assay, Ki determination, α-Thrombin; assay type: biochemical; details: substrate S-2238
T2 construct: FXa converts prothrombin to thrombin; purchased Haematologic Technologies (Essex Junction, VT, USA)
Procedure: as §1

Trypsin = assay: Chromogenic substrate assay, Ki determination, Trypsin; assay type: biochemical, human; details: substrate S-2222
Procedure: as §1

Plasmin = Plasmin (Homo sapiens, UniProt P00747); assay: Chromogenic substrate assay, Ki determination, Plasmin; assay type: biochemical; details: substrate S-2251
Chain of Plasmin (P00747 581-810 limits assumed): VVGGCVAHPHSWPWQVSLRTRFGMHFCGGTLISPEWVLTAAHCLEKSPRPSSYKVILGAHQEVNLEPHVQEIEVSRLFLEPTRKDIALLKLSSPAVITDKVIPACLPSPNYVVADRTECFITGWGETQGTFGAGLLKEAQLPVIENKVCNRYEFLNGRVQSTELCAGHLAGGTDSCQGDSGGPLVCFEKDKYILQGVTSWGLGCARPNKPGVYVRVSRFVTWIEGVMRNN
Chain of Plasmin (P00747 97-580 limits assumed): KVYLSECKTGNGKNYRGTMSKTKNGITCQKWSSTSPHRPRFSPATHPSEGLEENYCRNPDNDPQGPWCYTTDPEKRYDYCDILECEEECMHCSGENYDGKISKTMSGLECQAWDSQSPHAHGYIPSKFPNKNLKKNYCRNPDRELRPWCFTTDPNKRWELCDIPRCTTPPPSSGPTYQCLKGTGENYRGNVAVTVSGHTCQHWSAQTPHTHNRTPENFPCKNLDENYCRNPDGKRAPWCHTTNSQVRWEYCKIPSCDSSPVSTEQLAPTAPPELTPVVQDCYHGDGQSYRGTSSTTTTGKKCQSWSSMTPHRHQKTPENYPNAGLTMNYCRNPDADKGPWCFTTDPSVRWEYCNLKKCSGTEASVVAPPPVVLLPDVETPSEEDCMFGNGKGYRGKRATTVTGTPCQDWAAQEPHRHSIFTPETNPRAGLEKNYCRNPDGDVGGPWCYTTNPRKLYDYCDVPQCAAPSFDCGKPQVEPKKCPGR
Procedure: as §1

Protein Ca = Protein Ca (Homo sapiens, UniProt P04070); assay: Chromogenic substrate assay, Ki determination, Protein Ca; assay type: biochemical; details: substrate S-2366
Chain of Protein Ca (P04070 212-461 limits assumed): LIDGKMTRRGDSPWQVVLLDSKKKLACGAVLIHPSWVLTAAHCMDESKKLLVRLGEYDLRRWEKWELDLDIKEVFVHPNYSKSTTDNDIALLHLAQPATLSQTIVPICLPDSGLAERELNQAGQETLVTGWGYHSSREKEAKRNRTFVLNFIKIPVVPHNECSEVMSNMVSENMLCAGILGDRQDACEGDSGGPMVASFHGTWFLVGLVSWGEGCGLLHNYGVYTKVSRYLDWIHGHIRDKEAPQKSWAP
Chain of Protein Ca (P04070 43-197 limits assumed): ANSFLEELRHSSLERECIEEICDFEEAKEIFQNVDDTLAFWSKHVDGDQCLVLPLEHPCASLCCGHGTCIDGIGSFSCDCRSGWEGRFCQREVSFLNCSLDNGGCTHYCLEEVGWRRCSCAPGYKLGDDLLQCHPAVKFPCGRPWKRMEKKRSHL
Procedure: as §1

[1] = biological target: Streptokinase (Homo sapiens); assay: Chromogenic substrate assay, Ki determination, Streptokinase; assay type: biochemical; details: substrate S-2251
Chain of Streptokinase (Homo sapiens) (P00747 581-810 limits assumed): as the sequence (P00747 581-810 limits assumed) above
Procedure: as §1

tPA = tPA (Homo sapiens, UniProt P00750); assay: Chromogenic substrate assay, Ki determination, tPA; assay type: biochemical; details: substrate S-2228
Chain of tPA (P00750 36-562): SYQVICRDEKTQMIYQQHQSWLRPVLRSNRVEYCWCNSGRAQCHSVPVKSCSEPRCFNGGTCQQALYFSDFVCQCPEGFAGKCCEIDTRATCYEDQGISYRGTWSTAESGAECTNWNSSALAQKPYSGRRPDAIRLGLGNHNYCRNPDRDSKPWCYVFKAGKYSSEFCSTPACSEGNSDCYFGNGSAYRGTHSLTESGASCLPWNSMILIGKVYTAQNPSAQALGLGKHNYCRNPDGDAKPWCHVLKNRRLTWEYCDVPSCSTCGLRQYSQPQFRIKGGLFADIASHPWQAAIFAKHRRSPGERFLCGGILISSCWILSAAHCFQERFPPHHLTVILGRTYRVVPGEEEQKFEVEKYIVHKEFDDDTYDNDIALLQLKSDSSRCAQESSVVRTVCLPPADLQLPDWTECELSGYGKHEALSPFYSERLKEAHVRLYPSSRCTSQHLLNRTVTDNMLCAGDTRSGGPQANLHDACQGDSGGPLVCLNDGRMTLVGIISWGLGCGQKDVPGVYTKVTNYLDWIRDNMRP
Procedure: as §1

Urokinase = Urokinase (Homo sapiens, UniProt P00749); assay: Chromogenic substrate assay, Ki determination, Urokinase; assay type: biochemical; details: substrate S-2444
Procedure: as §1

C57BL/6 mice [2] = assay: Ex vivo coagulation assay, aPTT; assay type: in vivo, mouse; details: intravenous, 38 to 193 µg/kg
Procedure: (§2) To evaluate the effects of compounds 1–5 on coagulation parameters ex vivo, we measured the influence of the isolated compounds on activated partial thromboplastin time (aPTT) and prothrombin time (PT). […] The average circulating blood volume for mice is 72 mL/kg[21]. Because the average weight of mice used in this study was 27 g and the average blood volume was 2 mL, the dose of compounds 1–5 (38.6, 77.2, or 193.1 µg/kg) equaled a peripheral blood concentration of approximately 1, 2, and 5 µM, respectively.
Figure 4 Effects of compounds 1–4 on clotting and bleeding time. […] Fifteen minutes after the last administration, blood samples were collected and in vivo aPTT was measured. […] Accumulated bleeding times (including periods of re-bleeding) were recorded. […] Data are presented as means ± SD of three independent experiments. *p < 0.05 vs. vehicle alone, analyzed by one-way ANOVA, followed by Tukey multiple comparison testing.
Fifteen min after the administration of each compound or saline, blood was sampled, and plasma was obtained by centrifuging at 2,000 × g for 10 min at room temperature in order to measure prothrombin time (PT) and activated partial thromboplastin time (aPTT). The aPTT and PT were determined using a Thrombotimer (Behnk Elektronik, Norderstedt, Germany), according to the manufacturer’s instructions and as described previously. […] The clotting times were recorded. […]

C57BL/6 mice [3] = assay: In vivo clotting time (aPTT after four daily injections); set-up: species or system mouse; details: daily intravenous injection for four consecutive days
Procedure: as §2
Figure 4 Effects of compounds 1–4 on clotting and bleeding time. (A) One hour after administration (intravenous injection) of compound 1 (white box), 2 (light gray box), 3 (dark gray box), or 4 (black box), blood was collected from the mice and platelet-poor plasma (PPP) was obtained by centrifugation at 2,000 × g for 10 min at room temperature to test ex vivo activated partial thromboplastin time (aPTT). (B) Each group received a daily intravenous injection of the indicated compound for four consecutive days. Fifteen minutes after the last administration, blood samples were collected and in vivo aPTT was measured. […] Accumulated bleeding times (including periods of re-bleeding) were recorded. […] Data are presented as means ± SD of three independent experiments. *p < 0.05 vs. vehicle alone, analyzed by one-way ANOVA, followed by Tukey multiple comparison testing.

[4] = system: mouse platelet-rich plasma (PRP); assay: In vitro platelet aggregation induced by ADP; assay type: cell-based; details: ADP 10 µM
Procedure: (§3) To study the effects of compounds 1–5 on platelet aggregation, we used mouse platelet-rich plasma (PRP) induced with various agonists as an in vitro model.
(§4) Figure 5 Effects of compounds 1–4 on agonist-induced platelet aggregation in vitro. Platelet-rich plasma (PRP) was preincubated for 5 min with different concentrations of compounds 1–4, or vehicle. Platelet aggregation was initiated with ADP (A, 10 µM), U46619 (B, 6 µM), or thrombin (C, 3 U/mL). D = 0.2% DMSO used as the vehicle control. Data are presented as means ± SD of three independent experiments. ^* p < 0.05 vs. vehicle alone, analyzed by one-way ANOVA, followed by Tukey multiple comparison testing.
(§5) The in vitro platelet aggregation assay was performed according to a previously reported method, [39]. Platelet rich plasma (PRP) was incubated with the indicated concentration of each compound in DMSO for 1, 3, 5, or 10 min. Samples were subsequently stimulated by ADP (10 μM), U46619 (6 μM), or thrombin (3 U/mL). Platelet aggregation was recorded using an aggregometer (Chronolog, Havertown, PA, USA).

[5] = system: mouse platelet-rich plasma (PRP); assay: In vitro platelet aggregation induced by U46619; assay type: cell-based; details: U46619 6 µM
Procedure: as §3, §4, §5

[6] = system: mouse platelet-rich plasma (PRP); assay: In vitro platelet aggregation induced by thrombin; assay type: cell-based; details: thrombin 3 U/mL
Procedure: as §3, §4, §5

C57BL/6 mice [7] = assay: FeCl3-induced arterial thrombosis mouse model; assay type: in vivo; details: FeCl3 injury, tirofiban 0.2 or 0.4 mg/kg (dose for this value not stated)

In the case of `O=C(NC[C@H]1CN(c2ccc(N3CCOCC3=O)cc2)C(=O)O1)c1ccc(Cl)s1` [rivaroxaban], the “platelet aggregation induced by ADP, thrombin, or U46619” value (platelet aggregation) is listed as “did not affect”, the generation of thrombin (thrombin) is listed as “prolonged” and the bleeding times (bleeding time models) is listed as “not significantly affected”. For the same compound, the bleeding times (rat) was “dose-dependently prolonged”.
With `CC(=O)N/C=C/c1ccc2c(c1)O[C@H](c1ccc(O)c(O)c1)[C@@H](NC(C)=O)O2` [Compound 5, (2 R,3 S)-2-(3′,4′-dihydroxyphenyl)-3-acetylamino-7-(N-acetyl-2″-aminethylene)-1,4-benzodioxane] the Ki (FXa) was over 250 µM, the Ki (α-Thrombin) was over 250 µM and the Ki (Trypsin) was over 250 µM. For the same compound, the Ki (Plasmin) was over 250 µM, the Ki (Protein Ca) was over 250 µM and the Ki [1] was over 250 µM. For the same compound, the Ki (tPA) was over 250 µM, the Ki (Urokinase) was over 250 µM and the “activated partial thromboplastin time (aPTT), ex vivo” value (C57BL/6 mice [2]) was “did not affect”. The “blood clotting time in vivo (anticoagulant effect)” value (C57BL/6 mice [3]) was “not”, the “platelet aggregation induced by ADP” value [4] was “did not affect” and the “platelet aggregation induced by U46619” value [5] was “did not affect”. The thrombin-induced platelet aggregation [6] was “did not affect”.
With `CCCCS(=O)(=O)N[C@@H](Cc1ccc(OCCCCC2CCNCC2)cc1)C(=O)O` [tirofiban] the “time to growth of large thrombi” value (C57BL/6 mice [7]) was 61.1 ± 5.1 min.

From article PMC5554137, “Evaluation of novel factor Xa inhibitors from Oxya chinensis sinuosa with anti-platelet aggregation activity” (Scientific Reports, 2017)
